In test [1] the test system is Feces samples from 20 persons. Nature of the test: Incubation of homogenized feces samples with fructose and minerals, gas-meter (Example 3). The note with it: 1 g fructose per 100 g of feces; for reduction in the amount of gas, in words: 20 feces samples; for amounts of gas: incubated at 37°, control 150 ml. Also on record: species or system human. Here is the method:
The incubation containers were all added with 1 g fructose per 100 g of feces, and additionally with 1. Selenium 20 μg; 2. 40 μg tungsten, 3. […] 20 μg Selenium plus 40 μg molybdenum; 6. 40 μg Selenium plus 20 μg tungsten plus 1 drop multivitamin solution “Multibionta”, 7. 40 μg Selenium plus 20 μg tungsten plus 1 drop multivitamin solution “Multibionta” plus 1 mg of iron plus 20 μg nickel. A control tank was added only with fructose.
The incubation containers were fitted with a gas-meter, sealed gas-tight and incubated at 37°.

For the next test, the system named is meteorism. In words: Person with meteorism after fiber-rich meals (Examples 15 and 16). The class given is in vivo, human. To be noted: 1.5 mg three times daily in water, after one week of treatment. The protocol:
A person who suffers from meteorism after eating fiber-rich meals is treated three times daily with 1.5 mg of sodium tungstate, which is dissolved in water administered with the drinking fluid during the main meals.
A person who suffers from meteorism after eating fiber-rich meals is treated three times daily with 1.5 mg of sodium tungstate, which is dissolved in 100 ml water with the addition of 100 mg phytic acid and is allowed to rest for 30 minutes, and is administered to the main meals with the drinking fluid.

As to Selenium, in test [1], the “reduction in the amount of gas, in words” value was “significant gas reduction” and the amounts of gas stood at 110 mL. On to `[Na+].[Na+].[O]=[W](=[O])([O-])[O-]` [sodium tungstate], for which the meteorism result in the test on meteorism is “significantly decreases”.

As to `[W]` [W, tungsten], in test [1], the “reduction in the amount of gas, in words” value was “significant gas reduction” and the amounts of gas stood at 100 mL.

These data come from patent publication US20100247489A1, “USE OF A COMPOSITION MADE OF MINERAL NUTRIENTS AND OPTIONALLY ACETOGENIC AND/OR BUTYROGENIC BACTERIA IN ORDER TO AVOID OR REDUCE THE FORMATION OF GAS IN THE LARGE INTESTINE OF A MAMMAL AND THE RESULTING ABDOMINAL PROBLEMS” (priority 2006, published 2010).
